Experimental data taken from PubChem BioAssay AID1963977 (Molecular Pharmacology Branch, DTP, NCI, 2024).

Test system: 624824-186-R-J3-PDC multicell spheroids, viability
Experiment: Anticancer human tumor 624824-186-R-J3-PDC patient-derived colon adenocarcinoma cell line growth inhibition [PI3K]
Details: for IC50: curve of first compound; for viability, T/C: stronger effect = lower value
Outline: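 Three cell types, namely tumor cells, endothelial cells and mesenchymal stem cells, formed each spheroid. Combinations with four PI3K inhibitors were screened at clinically achievable concentrations decreasing by half-log, and spheroid viability was recorded.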

[1] = second compound 0.0316 µM, first compound 0.0316 µM
[2] = second compound 0.0316 µM, first compound 0.1 µM
[3] = second compound 0.0316 µM, first compound 0.316 µM
[4] = second compound 0.0316 µM, first compound 1 µM
[5] = second compound 0.0316 µM, first compound 3.16 µM
[6] = second compound 0.0316 µM, first compound 10 µM
[7] = second compound 0.1 µM, first compound 0.0316 µM
[8] = second compound 0.1 µM, first compound 0.1 µM
[9] = second compound 0.1 µM, first compound 0.316 µM
[10] = second compound 0.1 µM, first compound 1 µM
[11] = second compound 0.1 µM, first compound 3.16 µM
[12] = second compound 0.1 µM, first compound 10 µM
[13] = second compound 0.316 µM, first compound 0.0316 µM
[14] = second compound 0.316 µM, first compound 0.1 µM
[15] = second compound 0.316 µM, first compound 0.316 µM
[16] = second compound 0.316 µM, first compound 1 µM
[17] = second compound 0.316 µM, first compound 3.16 µM
[18] = second compound 0.316 µM, first compound 10 µM
[19] = second compound 1 µM, first compound 0.0316 µM
[20] = second compound 1 µM, first compound 0.1 µM
[21] = second compound 1 µM, first compound 0.316 µM
[22] = second compound 1 µM, first compound 1 µM
[23] = second compound 1 µM, first compound 3.16 µM
[24] = second compound 1 µM, first compound 10 µM
[25] = second compound 3.16 µM, first compound 0.0316 µM
[26] = second compound 3.16 µM, first compound 0.1 µM
[27] = second compound 3.16 µM, first compound 0.316 µM
[28] = second compound 3.16 µM, first compound 1 µM
[29] = second compound 3.16 µM, first compound 3.16 µM
[30] = second compound 3.16 µM, first compound 10 µM
[31] = second compound 10 µM, first compound 0.0316 µM
[32] = second compound 10 µM, first compound 0.1 µM
[33] = second compound 10 µM, first compound 0.316 µM
[34] = second compound 10 µM, first compound 1 µM
[35] = second compound 10 µM, first compound 3.16 µM
[36] = second compound 10 µM, first compound 10 µM
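Note: spheroids exposed to agents for seven days before luminescence read.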
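Throughout, for viability, T/C: luminescent signal used as a stand-in for spheroid viability; percent viability relative to DMSO vehicle control wells taken as 100%.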

In the case of `C#Cc1c(F)ccc2cc(O)cc(-c3ncc4c(N5CC6CCC(C5)N6)nc(OCC56CCCN5CC(F)C6)nc4c3F)c12` (stereo unspecified) + CC(Nc1ccc2c(c1)OCCn1cc(N3C(=O)OCC3C(F)F)nc1-2)C(N)=O, the IC50 (second compound 0.00316 µM) is reported as greater than 10 µM, the IC50 (second compound 0.01 µM) is reported as greater than 10 µM and the IC50 (second compound 0.0316 µM) is reported as greater than 10 µM. The IC50 (second compound 0.1 µM) was greater than 10 µM, the IC50 (second compound 0.316 µM) was greater than 10 µM and the IC50 (second compound 1 µM) was greater than 10 µM. The viability, T/C (second compound 0.00316 µM, first compound 0.0316 µM) was 106%, the viability, T/C (second compound 0.00316 µM, first compound 0.1 µM) was 108% and the viability, T/C (second compound 0.00316 µM, first compound 0.316 µM) was 100%. The viability, T/C (second compound 0.00316 µM, first compound 1 µM) was 108%, the viability, T/C (second compound 0.00316 µM, first compound 3.16 µM) was 104% and the viability, T/C (second compound 0.00316 µM, first compound 10 µM) was 122%. The viability, T/C (second compound 0.01 µM, first compound 0.0316 µM) was 109%, the viability, T/C (second compound 0.01 µM, first compound 0.1 µM) was 89.9% and the viability, T/C (second compound 0.01 µM, first compound 0.316 µM) was 97.1%. The viability, T/C (second compound 0.01 µM, first compound 1 µM) was 108%, the viability, T/C (second compound 0.01 µM, first compound 3.16 µM) was 103% and the viability, T/C (second compound 0.01 µM, first compound 10 µM) was 101%. The viability, T/C [1] was 109%, the viability, T/C [2] was 105% and the viability, T/C [3] was 107%. It also gave a viability, T/C [4] of 103%, a viability, T/C [5] of 107% and a viability, T/C [6] of 106%. For the same compound, the viability, T/C [7] was 105%, the viability, T/C [8] was 101% and the viability, T/C [9] was 108%. The viability, T/C [10] was 109%, the viability, T/C [11] was 111% and the viability, T/C [12] was 103%. The viability, T/C [13] was 95.9%, the viability, T/C [14] was 99.7% and the viability, T/C [15] was 103%. For the same compound, the viability, T/C [16] was 98%, the viability, T/C [17] was 104% and the viability, T/C [18] was 108%. The viability, T/C [19] was 93.9%, the viability, T/C [20] was 83.2% and the viability, T/C [21] was 94.3%. It also gave a viability, T/C [22] of 88.3%, a viability, T/C [23] of 88.8% and a viability, T/C [24] of 99.2%.
With `C#Cc1c(F)ccc2cc(O)cc(-c3ncc4c(N5CC6CCC(C5)N6)nc(OCC56CCCN5CC(F)C6)nc4c3F)c12` (stereo unspecified) + CC(Nc1ncnc2nc[nH]c12)c1cc2cccc(Cl)c2c(=O)n1-c1ccccc1 the IC50 (second compound 0.0316 µM) was greater than 10 µM, the IC50 (second compound 0.1 µM) was greater than 10 µM and the IC50 (second compound 0.316 µM) was greater than 10 µM. It also gave an IC50 (second compound 1 µM) greater than 10 µM, an IC50 (second compound 3.16 µM) greater than 10 µM and an IC50 (second compound 10 µM) greater than 10 µM. The viability, T/C [1] was 115%, the viability, T/C [2] was 93.2% and the viability, T/C [3] was 104%. The viability, T/C [4] was 101%, the viability, T/C [5] was 97% and the viability, T/C [6] was 117%. It also gave a viability, T/C [7] of 106%, a viability, T/C [8] of 99.2% and a viability, T/C [9] of 117%. The viability, T/C [10] was 113%, the viability, T/C [11] was 105% and the viability, T/C [12] was 115%. The viability, T/C [13] was 88.4%, the viability, T/C [14] was 103% and the viability, T/C [15] was 109%. For the same compound, the viability, T/C [16] was 102%, the viability, T/C [17] was 114% and the viability, T/C [18] was 115%. It also gave a viability, T/C [19] of 102%, a viability, T/C [20] of 110% and a viability, T/C [21] of 108%. It also gave a viability, T/C [22] of 103%, a viability, T/C [23] of 111% and a viability, T/C [24] of 112%. It also gave a viability, T/C [25] of 96%, a viability, T/C [26] of 105% and a viability, T/C [27] of 105%. The viability, T/C [28] was 95.3%, the viability, T/C [29] was 100% and the viability, T/C [30] was 110%. It also gave a viability, T/C [31] of 96.3%, a viability, T/C [32] of 97% and a viability, T/C [33] of 94.5%. The viability, T/C [34] was 92.8%, the viability, T/C [35] was 98.3% and the viability, T/C [36] was 85.7%.
`CC(C)NCC(C(=O)N1CCN(c2ncnc3c2C(C)CC3O)CC1)c1ccc(Cl)cc1` (stereo unspecified) + CC(Nc1ncnc2nc[nH]c12)c1cc2cccc(Cl)c2c(=O)n1-c1ccccc1 was tested, and the IC50 (second compound 0.0316 µM) was greater than 10 µM, the IC50 (second compound 0.1 µM) was greater than 10 µM and the IC50 (second compound 0.316 µM) was greater than 10 µM. It also gave an IC50 (second compound 1 µM) greater than 10 µM, an IC50 (second compound 3.16 µM) of 6.42 µM and an IC50 (second compound 10 µM) of 8.04 µM. It also gave a viability, T/C [1] of 124%, a viability, T/C [2] of 99% and a viability, T/C [3] of 94.2%. The viability, T/C [4] was 80.5%, the viability, T/C [5] was 72.5% and the viability, T/C [6] was 52.4%. The viability, T/C [7] was 108%, the viability, T/C [8] was 89.1% and the viability, T/C [9] was 95.5%. The viability, T/C [10] was 81.2%, the viability, T/C [11] was 59.9% and the viability, T/C [12] was 56.2%. For the same compound, the viability, T/C [13] was 103%, the viability, T/C [14] was 103% and the viability, T/C [15] was 106%. For the same compound, the viability, T/C [16] was 79.2%, the viability, T/C [17] was 59.8% and the viability, T/C [18] was 54.2%. For the same compound, the viability, T/C [19] was 104%, the viability, T/C [20] was 110% and the viability, T/C [21] was 115%. The viability, T/C [22] was 74.7%, the viability, T/C [23] was 62.8% and the viability, T/C [24] was 45.8%. It also gave a viability, T/C [25] of 93%, a viability, T/C [26] of 89.7% and a viability, T/C [27] of 89.5%. The viability, T/C [28] was 71.6%, the viability, T/C [29] was 57.4% and the viability, T/C [30] was 45.7%. It also gave a viability, T/C [31] of 98.2%, a viability, T/C [32] of 89.5% and a viability, T/C [33] of 80%. For the same compound, the viability, T/C [34] was 72%, the viability, T/C [35] was 56% and the viability, T/C [36] was 48.7%.
